Experiments:
Assay in all cases: Post-emergence test on weeds (greenhouse, spray at 2-3 leaf stage)
Assay type in all cases: in vivo
Design in all cases: key: Level 10: completely dead; Level 9: growth control rate greater than or equal to 90% and less than 100%; Level 8: growth control rate greater than or equal to 80% and less than 90%; Level 7: growth control rate greater than or equal to 70% and less than 80%; Level 6: growth control rate greater than or equal to 60% and less than 70%; Level 5: growth control rate greater than or equal to 50% and less than 60%; Level 4: growth control rate greater than or equal to 40% and less than 50%; Level 3: growth control rate greater than or equal to 30% and less than 40%; Level 2: growth control rate greater than or equal to 20% and less than 30%; Level 1: growth control rate less than 20%; Level 0: no effect
Conditions in all cases: 60 g a.i./ha, 3 weeks after application
Amaranthus retroflexus = test system: Amaranthus retroflexus
Method in brief: (§1)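 Greenhouse pot-grown weeds were sprayed by spray tower at the 2-3 leaf stage, about two weeks after sowing, with acetone/Tween 80 solutions plus 1.5 L/ha methyl oleate EC synergist at 500, 250, […], 15 and 7.5 g a.i./ha. Fresh-weight growth control was scored 0-10 after 3 weeks, triplicate averaged.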

Digitaria sanguinalis = test system: Digitaria sanguinalis
Method in brief: as §1

Setaria viridis = test system: Setaria viridis
Method in brief: as §1

Echinochloa crus-galli = test system: Echinochloa crus-galli
Method in brief: as §1

Veronica polita = test system: Veronica polita
Method in brief: as §1

Abutilon theophrasti = test system: Abutilon theophrasti
Method in brief: as §1

CC1(C(=O)OCCF)ON=C(c2cc(-c3ncc(C(F)(F)F)cc3Cl)c(F)cc2Cl)O1 (stereo not drawn) [Compound 99]
10: activity level (fresh weight growth control rate), Amaranthus retroflexus (Amaranthus retroflexus) | activity level (fresh weight growth control rate), Digitaria sanguinalis (Digitaria sanguinalis) | activity level (fresh weight growth control rate), Setaria viridis (Setaria viridis) | activity level (fresh weight growth control rate), Echinochloa crus-galli (Echinochloa crus-galli) | activity level (fresh weight growth control rate), Veronica polita (Veronica polita) | activity level (fresh weight growth control rate), Abutilon theophrasti (Abutilon theophrasti)

COC(=O)C1(C)ON=C(c2cc(-c3ncc(Br)cc3Cl)c(F)cc2Cl)O1 (stereo not drawn) [Compound 5]
10: activity level (fresh weight growth control rate), Amaranthus retroflexus (Amaranthus retroflexus) | activity level (fresh weight growth control rate), Digitaria sanguinalis (Digitaria sanguinalis) | activity level (fresh weight growth control rate), Setaria viridis (Setaria viridis) | activity level (fresh weight growth control rate), Echinochloa crus-galli (Echinochloa crus-galli) | activity level (fresh weight growth control rate), Veronica polita (Veronica polita) | activity level (fresh weight growth control rate), Abutilon theophrasti (Abutilon theophrasti)

COC(=O)C1(C)ON=C(c2cc(-c3ncccc3Cl)c(F)cc2Cl)O1 (stereo not drawn) [Compound 8]
10: activity level (fresh weight growth control rate), Amaranthus retroflexus (Amaranthus retroflexus) | activity level (fresh weight growth control rate), Digitaria sanguinalis (Digitaria sanguinalis) | activity level (fresh weight growth control rate), Setaria viridis (Setaria viridis) | activity level (fresh weight growth control rate), Echinochloa crus-galli (Echinochloa crus-galli) | activity level (fresh weight growth control rate), Veronica polita (Veronica polita) | activity level (fresh weight growth control rate), Abutilon theophrasti (Abutilon theophrasti)

CC1(C(=O)OC2CCCC2)ON=C(c2cc(-c3ncc(C(F)(F)F)cc3Cl)c(F)cc2Cl)O1 (stereo not drawn) [Compound 127]
10: activity level (fresh weight growth control rate), Amaranthus retroflexus (Amaranthus retroflexus) | activity level (fresh weight growth control rate), Digitaria sanguinalis (Digitaria sanguinalis) | activity level (fresh weight growth control rate), Setaria viridis (Setaria viridis) | activity level (fresh weight growth control rate), Echinochloa crus-galli (Echinochloa crus-galli) | activity level (fresh weight growth control rate), Veronica polita (Veronica polita) | activity level (fresh weight growth control rate), Abutilon theophrasti (Abutilon theophrasti)

C#CCOC(=O)C1(C)ON=C(c2cc(-c3ncc(C(F)(F)F)cc3Cl)c(F)cc2Cl)O1 (stereo not drawn) [Compound 97]
10: activity level (fresh weight growth control rate), Amaranthus retroflexus (Amaranthus retroflexus) | activity level (fresh weight growth control rate), Digitaria sanguinalis (Digitaria sanguinalis) | activity level (fresh weight growth control rate), Setaria viridis (Setaria viridis) | activity level (fresh weight growth control rate), Echinochloa crus-galli (Echinochloa crus-galli) | activity level (fresh weight growth control rate), Veronica polita (Veronica polita) | activity level (fresh weight growth control rate), Abutilon theophrasti (Abutilon theophrasti)

COC(=O)C1(C)ON=C(c2cc(-c3ncc(C(F)(F)F)c(F)c3F)c(F)cc2Cl)O1 (stereo not drawn) [Compound 4]
10: activity level (fresh weight growth control rate), Amaranthus retroflexus (Amaranthus retroflexus) | activity level (fresh weight growth control rate), Digitaria sanguinalis (Digitaria sanguinalis) | activity level (fresh weight growth control rate), Setaria viridis (Setaria viridis) | activity level (fresh weight growth control rate), Echinochloa crus-galli (Echinochloa crus-galli) | activity level (fresh weight growth control rate), Veronica polita (Veronica polita) | activity level (fresh weight growth control rate), Abutilon theophrasti (Abutilon theophrasti)

CCC1(C(=O)OC)ON=C(c2cc(-c3ncc(C(F)(F)F)cc3F)c(F)cc2Cl)O1 (stereo not drawn) [Compound 19]
10: activity level (fresh weight growth control rate), Amaranthus retroflexus (Amaranthus retroflexus) | activity level (fresh weight growth control rate), Digitaria sanguinalis (Digitaria sanguinalis) | activity level (fresh weight growth control rate), Setaria viridis (Setaria viridis) | activity level (fresh weight growth control rate), Echinochloa crus-galli (Echinochloa crus-galli) | activity level (fresh weight growth control rate), Veronica polita (Veronica polita) | activity level (fresh weight growth control rate), Abutilon theophrasti (Abutilon theophrasti)

CCCC1(C(=O)OC)ON=C(c2cc(-c3ncc(C(F)(F)F)cc3Cl)c(F)cc2Cl)O1 (stereo not drawn) [Compound 20]
10: activity level (fresh weight growth control rate), Amaranthus retroflexus (Amaranthus retroflexus) | activity level (fresh weight growth control rate), Digitaria sanguinalis (Digitaria sanguinalis) | activity level (fresh weight growth control rate), Setaria viridis (Setaria viridis) | activity level (fresh weight growth control rate), Echinochloa crus-galli (Echinochloa crus-galli) | activity level (fresh weight growth control rate), Veronica polita (Veronica polita) | activity level (fresh weight growth control rate), Abutilon theophrasti (Abutilon theophrasti)

CCOC(=O)C1(C)ON=C(c2cc(-c3ccc(C(F)(F)F)cn3)c(F)cc2Cl)O1 (stereo not drawn) [Compound 29]
10: activity level (fresh weight growth control rate), Amaranthus retroflexus (Amaranthus retroflexus) | activity level (fresh weight growth control rate), Digitaria sanguinalis (Digitaria sanguinalis) | activity level (fresh weight growth control rate), Setaria viridis (Setaria viridis) | activity level (fresh weight growth control rate), Echinochloa crus-galli (Echinochloa crus-galli) | activity level (fresh weight growth control rate), Veronica polita (Veronica polita) | activity level (fresh weight growth control rate), Abutilon theophrasti (Abutilon theophrasti)

CC1(C(=O)O)ON=C(c2cc(-c3ncc(C(F)(F)F)cc3Cl)c(F)cc2Cl)O1 (stereo not drawn) [Compound 1]
10: activity level (fresh weight growth control rate), Amaranthus retroflexus (Amaranthus retroflexus) | activity level (fresh weight growth control rate), Digitaria sanguinalis (Digitaria sanguinalis) | activity level (fresh weight growth control rate), Setaria viridis (Setaria viridis) | activity level (fresh weight growth control rate), Echinochloa crus-galli (Echinochloa crus-galli) | activity level (fresh weight growth control rate), Veronica polita (Veronica polita) | activity level (fresh weight growth control rate), Abutilon theophrasti (Abutilon theophrasti)

CC1(C(=O)OCC(F)F)ON=C(c2cc(-c3ncc(C(F)(F)F)cc3Cl)c(F)cc2Cl)O1 (stereo not drawn) [Compound 101]
10: activity level (fresh weight growth control rate), Amaranthus retroflexus (Amaranthus retroflexus) | activity level (fresh weight growth control rate), Digitaria sanguinalis (Digitaria sanguinalis) | activity level (fresh weight growth control rate), Setaria viridis (Setaria viridis) | activity level (fresh weight growth control rate), Echinochloa crus-galli (Echinochloa crus-galli) | activity level (fresh weight growth control rate), Veronica polita (Veronica polita) | activity level (fresh weight growth control rate), Abutilon theophrasti (Abutilon theophrasti)

CC1(C(=O)OCC2CC2)ON=C(c2cc(-c3ncc(C(F)(F)F)cc3Cl)c(F)cc2Cl)O1 (stereo not drawn) [Compound 126]
10: activity level (fresh weight growth control rate), Amaranthus retroflexus (Amaranthus retroflexus) | activity level (fresh weight growth control rate), Digitaria sanguinalis (Digitaria sanguinalis) | activity level (fresh weight growth control rate), Setaria viridis (Setaria viridis) | activity level (fresh weight growth control rate), Echinochloa crus-galli (Echinochloa crus-galli) | activity level (fresh weight growth control rate), Veronica polita (Veronica polita) | activity level (fresh weight growth control rate), Abutilon theophrasti (Abutilon theophrasti)

COC(=O)C1(C)ON=C(c2cc(-c3ncc(C)cc3Cl)c(F)cc2Cl)O1 (stereo not drawn) [Compound 12]
10: activity level (fresh weight growth control rate), Amaranthus retroflexus (Amaranthus retroflexus) | activity level (fresh weight growth control rate), Digitaria sanguinalis (Digitaria sanguinalis) | activity level (fresh weight growth control rate), Setaria viridis (Setaria viridis) | activity level (fresh weight growth control rate), Echinochloa crus-galli (Echinochloa crus-galli) | activity level (fresh weight growth control rate), Veronica polita (Veronica polita) | activity level (fresh weight growth control rate), Abutilon theophrasti (Abutilon theophrasti)

Reference: US20250206727A1, “HETEROCYCLIC SUBSTITUTED AROMATIC COMPOUND, PREPARATION METHOD THEREFOR, HERBICIDAL COMPOSITION AND APPLICATION” (QINGDAO KINGAGROOT CHEMICAL COMPOUND CO., LTD., priority 2022, published 2025)
